Measured values from patent publication US11406640B2, “JAK1 pathway inhibitors for the treatment of chronic lung allograft dysfunction” (Incyte Corporation, priority 2019, dated 2022).
“Also recorded” adds a separate entry of the source. Read-outs that look alike come from different tables or passages of the source.

What was measured:
[1] = test system: post-lung transplant BOS; conditions: prophylactic, compared to placebo; cited from earlier work
[2] = test system: patients with post-lung transplant BOS; conditions: patients with an FEV1 response vs those without; cited from earlier work
[3] = test system: alloreactive mouse model (GVHD); conditions: prophylactic and therapeutic dosing, 60 mg/kg per day or 120 mg/kg per day; cited from earlier work
[4] = test system: patients with aGVHD; conditions: human, in vivo, cited from earlier work
[5] = molecular target: human JAK2 (Homo sapiens (Human), UniProt O60674); experiment: In vitro JAK kinase assay (Example A), JAK2; format: biochemical; conditions: JAK2/JAK1 IC50 ratio, 1 mM ATP
Sequence of human JAK2 (O60674 828-1132): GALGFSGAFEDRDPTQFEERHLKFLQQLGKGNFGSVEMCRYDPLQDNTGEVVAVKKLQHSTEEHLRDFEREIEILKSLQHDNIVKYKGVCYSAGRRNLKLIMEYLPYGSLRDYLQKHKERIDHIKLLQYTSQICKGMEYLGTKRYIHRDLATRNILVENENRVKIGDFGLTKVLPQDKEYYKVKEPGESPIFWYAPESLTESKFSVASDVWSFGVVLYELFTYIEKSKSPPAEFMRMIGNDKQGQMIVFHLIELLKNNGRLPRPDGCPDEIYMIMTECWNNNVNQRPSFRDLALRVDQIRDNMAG
Protocol: The compounds in Table 2 were tested in this assay and shown to have the IC50 values in Table 2.

[6] = molecular target: human JAK1 (Homo sapiens, UniProt P23458); experiment: In vitro JAK kinase assay (Example A), JAK1; format: biochemical; conditions: 1 mM ATP
Text: In some embodiments, the JAK1 pathway inhibitor is a compound of Table 2, or a pharmaceutically acceptable salt thereof.

[7] = test system: patients with BOS after lung transplantation; conditions: cited from earlier work
[8] = test system: patients with lung cGVHD; conditions: response defined by an increase in FEV1 of ≥10%; cited from earlier work
[9] = test system: pediatric patients with lung cGVHD; conditions: cited from earlier work
[10] = test system: patients with cGVHD; conditions: human, in vivo; cited from earlier work
[11] = test system: patients with post-lung transplant BOS; conditions: switching from cyclosporine to tacrolimus; cited from earlier work

CC[C@H]1OC(=O)[C@H](C)[C@@H](O[C@H]2C[C@@](C)(OC)[C@@H](O)[C@H](C)O2)[C@H](C)[C@@H](O[C@@H]2O[C@H](C)C[C@H](N(C)C)[C@H]2O)[C@](C)(O)C[C@@H](C)CN(C)[C@H](C)[C@@H](O)[C@]1(C)O [Azithromycin]
cases of BOS [1]: fewer cases of BOS | overall survival [1]: overall survival was not affected | overall survival [2]: overall survival advantage

N#CCC1(n2cc(-c3ncnc4[nH]ccc34)cn2)CN(C2CCN(C(=O)c3ccnc(C(F)(F)F)c3F)CC2)C1 [Compound 1, {1-{1-[3-Fluoro-2-(trifluoromethyl)isonicotinoyl]piperidin-4-yl}-3-[4-(7H-pyrrolo[2,3-d]pyrimidin-4-yl)-1H-pyrazol-1-yl]azetidin-3-yl}acetonitrile]
GVHD score [3]: improvement in the GVHD score | clinical efficacy in acute GVHD ([4]; listed as itacitinib): demonstrated clinical efficacy; also recorded: significant clinical activity | JAK2/JAK1 [5]: >10 | IC50 [6]: < 10 nM

CC(C)(O)c1ccccc1CC[C@@H](SCC1(CC(=O)O)CC1)c1cccc(/C=C/c2ccc3ccc(Cl)cc3n2)c1 [Montelukast]
effect on lung function decline ([7]; overall cohort, 30 patients randomized vs placebo): no effect on lung function decline | decline of FEV1 ([7]; post-hoc subanalysis of BOS grade 1 patients, absolute and predicted FEV1): attenuated further decline of FEV1

N#CC[C@H](C1CCCC1)n1cc(-c2ncnc3[nH]ccc23)cn1 [ruxolitinib]
clinical efficacy in acute GVHD [4]: demonstrated clinical efficacy | patients with FEV1 responses [8]: 4 out of 5 | increase in FEV1 ([9]; 1 patient): 9% | responses ([9]; 5 pediatric patients (4 evaluable)): 2 | decrease of the steroid requirement ([9]; final patient): > 50% | patients able to wean steroids completely ([9]; human, in vivo): Four out of five | clinical efficacy in chronic GVHD [10]: produced clinical efficacy

C=CC[C@@H]1/C=C(\C)C[C@H](C)C[C@H](OC)[C@H]2O[C@@](O)(C(=O)C(=O)N3CCCC[C@H]3C(=O)O[C@H](/C(C)=C/[C@@H]3CC[C@@H](O)[C@H](OC)C3)[C@H](C)[C@@H](O)CC1=O)[C@H](C)C[C@@H]2OC [tacrolimus]
loss of predicted FEV1 [11]: decrease in the loss of predicted FEV1
